Assay results: ChEMBL document CHEMBL1909046, “DrugMatrix in vitro pharmacology data”

Legend:
[1] = DRUGMATRIX: Calcium Channel Type L, Benzothiazepine radioligand binding (ligand: [3H] Diltiazem); assay type: cell membranes, Rattus norvegicus, Wistar, Brain, Membrane; details: Not Active = under 50% inhibition at 10 µM
[2] = target: 5-hydroxytryptamine receptor 6 (Homo sapiens, UniProt P50406); assay type: cell membranes, HeLa, Membrane; details: hela; note: in other assays of this panel Not Active means under 50% inhibition at 10 µM
[3] = target: Sigma non-opioid intracellular receptor 1 (Homo sapiens, UniProt Q99720); assay: DRUGMATRIX: Sigma1 radioligand binding (ligand: [3H] Haloperidol); assay type: cell membranes, Jurkat, Membrane; details: jurkat; Not Active = under 50% inhibition at 10 µM
[4] = DRUGMATRIX: Sigma2 radioligand binding (ligand: [3H] Ifenprodil); assay type: cell membranes, Rattus norvegicus, Wistar, Brain, Membrane; details: Not Active = under 50% inhibition at 10 µM
Substance-K receptor = target: T1, Substance-K receptor (Homo sapiens, UniProt P21452); assay type: cell membranes, CHO, Membrane; details: cho; note: in other assays of this panel Not Active means under 50% inhibition at 10 µM
T1 sequence (P21452 whole entry): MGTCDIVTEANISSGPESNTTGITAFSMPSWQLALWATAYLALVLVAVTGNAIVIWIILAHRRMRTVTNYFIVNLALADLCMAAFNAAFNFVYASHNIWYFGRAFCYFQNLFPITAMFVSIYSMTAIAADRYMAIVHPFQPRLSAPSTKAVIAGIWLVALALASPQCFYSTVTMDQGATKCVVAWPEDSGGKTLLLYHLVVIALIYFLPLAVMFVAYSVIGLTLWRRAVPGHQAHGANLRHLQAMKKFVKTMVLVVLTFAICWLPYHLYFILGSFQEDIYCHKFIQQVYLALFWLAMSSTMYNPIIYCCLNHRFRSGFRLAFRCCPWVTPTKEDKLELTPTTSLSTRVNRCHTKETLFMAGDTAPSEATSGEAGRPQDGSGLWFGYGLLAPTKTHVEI

[5] = DRUGMATRIX: Calcium Channel Type L, Phenylalkylamine radioligand binding (ligand: [3H] (-)-Desmethoxyverapamil (D-888)); assay type: cell membranes, Rattus norvegicus, Wistar, Brain, Membrane; details: Not Active = under 50% inhibition at 10 µM
[6] = DRUGMATRIX: Glutamate, NMDA, Phencyclidine radioligand binding (ligand: [3H] TCP); assay type: cell membranes, Rattus norvegicus, Wistar, Cerebral cortex, Membrane; details: Not Active = under 50% inhibition at 10 µM
Glycine receptor = Glycine receptor (Rattus norvegicus, UniProt P22771+P24524+P07727+P20781); assay type: cell membranes, Wistar, Spinal cord, Membrane; note: in other assays of this panel Not Active means under 50% inhibition at 10 µM
[7] = target: T2, Polyunsaturated fatty acid lipoxygenase ALOX15 (Oryctolagus cuniculus, UniProt P12530); assay: biochemical; assay type: tissue-based, Reticulocytes;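 note: inhibition of 15-lipoxygenase enzyme activity measured with linoleic acid as the substrate; in other assays of this panel Not Active means under 50% inhibition at 10 µM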
T2 sequence (P12530 whole entry): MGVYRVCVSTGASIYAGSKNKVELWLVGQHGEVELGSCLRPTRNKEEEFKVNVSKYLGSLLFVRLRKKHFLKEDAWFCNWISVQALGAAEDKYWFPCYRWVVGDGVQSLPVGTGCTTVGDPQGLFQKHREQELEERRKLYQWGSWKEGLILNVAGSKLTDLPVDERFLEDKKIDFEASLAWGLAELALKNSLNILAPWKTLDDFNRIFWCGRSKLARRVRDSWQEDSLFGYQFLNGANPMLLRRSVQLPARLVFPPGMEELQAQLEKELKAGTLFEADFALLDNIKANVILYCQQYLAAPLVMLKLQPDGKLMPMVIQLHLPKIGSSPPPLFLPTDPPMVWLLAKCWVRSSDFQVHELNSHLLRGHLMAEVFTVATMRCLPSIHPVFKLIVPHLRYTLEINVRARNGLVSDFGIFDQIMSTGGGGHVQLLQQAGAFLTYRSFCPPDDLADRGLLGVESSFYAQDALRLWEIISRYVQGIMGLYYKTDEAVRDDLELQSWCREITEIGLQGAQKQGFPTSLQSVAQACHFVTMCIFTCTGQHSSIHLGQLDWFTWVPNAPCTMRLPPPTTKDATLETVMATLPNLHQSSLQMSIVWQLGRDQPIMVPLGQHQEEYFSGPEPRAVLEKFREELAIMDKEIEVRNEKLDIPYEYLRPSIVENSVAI

[8] = DRUGMATRIX: Phosphodiesterase PDE3 enzyme inhibition (substrate: [3H]cAMP + cAMP); assay type: tissue-based, Homo sapiens; details: platelet; Not Active = under 50% inhibition at 10 µM
[9] = DRUGMATRIX: Phosphodiesterase PDE4 enzyme inhibition (substrate: [3H]cAMP + cAMP); details: u-937; Not Active = under 50% inhibition at 10 µM
[10] = target: Tyrosine-protein kinase Lck (Homo sapiens, UniProt P06239); assay: DRUGMATRIX: Protein Tyrosine Kinase, LCK enzyme inhibition (substrate: Poly(Glu:Tyr)); assay type: cell-based, Insect cells; details: insect cells; Not Active = under 50% inhibition at 10 µM
[11] = DRUGMATRIX: Purinergic P2X radioligand binding (ligand: [3H] alpha, beta-Methylene-ATP); assay type: cell membranes, Oryctolagus cuniculus, New Zealand albino, Urinary bladder, Membrane; details: Not Active = under 50% inhibition at 10 µM
[12] = target: T3, 5-hydroxytryptamine receptor 1A (Rattus norvegicus, UniProt P19327); assay type: cell membranes, CHO-K1, Membrane; details: cho-k1; note: in other assays of this panel Not Active means under 50% inhibition at 10 µM
T3 sequence (P19327 whole entry): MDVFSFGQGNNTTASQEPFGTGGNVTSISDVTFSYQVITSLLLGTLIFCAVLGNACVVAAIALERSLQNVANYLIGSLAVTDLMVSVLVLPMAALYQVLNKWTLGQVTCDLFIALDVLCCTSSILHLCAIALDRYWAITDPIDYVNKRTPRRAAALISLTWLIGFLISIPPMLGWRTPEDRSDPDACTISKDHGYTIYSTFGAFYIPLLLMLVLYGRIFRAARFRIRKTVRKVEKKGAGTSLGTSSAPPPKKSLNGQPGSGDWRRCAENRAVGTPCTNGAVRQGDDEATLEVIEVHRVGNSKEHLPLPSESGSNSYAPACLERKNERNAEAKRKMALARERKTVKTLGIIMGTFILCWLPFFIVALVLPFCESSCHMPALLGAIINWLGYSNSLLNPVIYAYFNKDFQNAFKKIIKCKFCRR

Sequence of 5-hydroxytryptamine receptor 6 (P50406 whole entry): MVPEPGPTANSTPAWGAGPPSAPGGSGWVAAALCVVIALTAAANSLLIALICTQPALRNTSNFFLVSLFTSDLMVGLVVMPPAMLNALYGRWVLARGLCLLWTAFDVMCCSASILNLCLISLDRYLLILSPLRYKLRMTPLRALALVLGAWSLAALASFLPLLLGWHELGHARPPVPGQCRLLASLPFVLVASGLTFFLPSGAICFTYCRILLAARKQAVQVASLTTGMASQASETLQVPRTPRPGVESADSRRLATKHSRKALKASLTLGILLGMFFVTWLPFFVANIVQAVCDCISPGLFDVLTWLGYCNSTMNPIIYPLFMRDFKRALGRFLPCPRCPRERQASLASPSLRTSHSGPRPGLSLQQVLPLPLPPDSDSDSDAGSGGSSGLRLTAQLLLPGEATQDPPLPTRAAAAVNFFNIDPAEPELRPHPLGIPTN
Sequence of Tyrosine-protein kinase Lck (P06239 whole entry): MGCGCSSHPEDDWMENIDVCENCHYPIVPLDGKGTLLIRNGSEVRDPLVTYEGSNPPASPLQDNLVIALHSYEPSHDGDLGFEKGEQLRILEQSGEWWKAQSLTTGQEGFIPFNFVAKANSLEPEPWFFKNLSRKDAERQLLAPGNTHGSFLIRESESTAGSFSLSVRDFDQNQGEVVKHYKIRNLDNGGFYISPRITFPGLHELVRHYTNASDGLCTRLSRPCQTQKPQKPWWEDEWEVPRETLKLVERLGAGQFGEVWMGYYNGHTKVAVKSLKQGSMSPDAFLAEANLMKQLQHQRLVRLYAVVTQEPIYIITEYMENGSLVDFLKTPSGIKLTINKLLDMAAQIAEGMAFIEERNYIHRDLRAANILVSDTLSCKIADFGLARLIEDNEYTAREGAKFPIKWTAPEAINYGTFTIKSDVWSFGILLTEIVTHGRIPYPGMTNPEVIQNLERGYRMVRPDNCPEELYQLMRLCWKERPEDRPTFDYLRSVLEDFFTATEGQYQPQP
Sequence of Sigma non-opioid intracellular receptor 1 (Q99720 whole entry): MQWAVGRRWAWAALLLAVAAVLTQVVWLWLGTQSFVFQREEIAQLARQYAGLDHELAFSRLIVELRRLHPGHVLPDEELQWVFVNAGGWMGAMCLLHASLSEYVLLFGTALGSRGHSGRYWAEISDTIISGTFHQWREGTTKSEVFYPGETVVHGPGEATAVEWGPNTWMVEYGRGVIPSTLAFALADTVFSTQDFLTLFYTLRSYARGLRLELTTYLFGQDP

SMILES	IC50 [1]	Ki [1]	IC50 [2]	IC50 [3]	IC50 [4]	Ki [4]	IC50 (Substance-K receptor)	IC50 [5]	Ki [5]	IC50 [6]	Ki [6]	IC50 (Glycine receptor)	IC50 [8]	Ki [8]	IC50 [9]	Ki [9]	IC50 [10]	IC50 [11]	Ki [11]	IC50 [12]	further results
CN[C@H](CC(C)C)C(=O)N[C@H]1C(=O)N[C@@H](CC(N)=O)C(=O)N[C@H]2C(=O)N[C@H]3C(=O)N[C@H](C(=O)N[C@H](C(=O)O)c4cc(O)cc(O)c4-c4cc3ccc4O)[C@H](O)c3ccc(c(Cl)c3)Oc3cc2cc(c3O[C@@H]2O[C@H](CO)[C@@H](O)[C@H](O)[C@H]2O[C@H]2C[C@](C)(N)[C@H](O)[C@H](C)O2)Oc2ccc(cc2Cl)[C@H]1O [VANCOMYCIN]	Not Active	Not Active	Not Active	Not Active	Not Active	Not Active	Not Active	Not Active	Not Active	Not Active	Not Active	Not Active	Not Active	Not Active	Not Active	Not Active	Not Active	Not Active	Not Active	Not Active	IC50 ([7]; reticulocytes): Not Active
CC(C)[C@H](N)C(=O)OCCOCn1cnc2c(=O)nc(N)[nH]c21 [VALACYCLOVIR]	Not Active	Not Active	Not Active	Not Active	Not Active	Not Active	Not Active	Not Active	Not Active	Not Active	Not Active	Not Active	Not Active	Not Active	Not Active	Not Active	Not Active	Not Active	Not Active	Not Active	IC50 ([7]; reticulocytes): Not Active
COS(C)(=O)=O [METHANESULFONIC ACID METHYL ESTER]	Not Active	Not Active	Not Active	Not Active	Not Active	Not Active	Not Active	Not Active	Not Active	Not Active	Not Active	Not Active	Not Active	Not Active	Not Active	Not Active	Not Active	Not Active	Not Active	Not Active	IC50 ([7]; reticulocytes): Not Active
CC1CN(c2cc3c(cc2F)c(=O)c(C(=O)O)cn3-c2ccc(F)cc2F)CCN1 (configuration not stated) [TEMAFLOXACIN]	Not Active	Not Active	Not Active	Not Active	Not Active	Not Active	Not Active	Not Active	Not Active	Not Active	Not Active	Not Active	Not Active	Not Active	Not Active	Not Active	Not Active	Not Active	Not Active	Not Active	IC50 ([7]; reticulocytes): Not Active
O=C1c2c(O)ccc(O)c2C(=O)c2c(NCCNCCO)ccc(NCCNCCO)c21 [MITOXANTRONE]	Not Active	Not Active	Not Active	Not Active	Not Active	Not Active	Not Active	Not Active	Not Active	Not Active	Not Active	Not Active	Not Active	Not Active	Not Active	Not Active	Not Active	Not Active	Not Active	Not Active	IC50 ([7]; read-out: IC50): 1.79 µM
CN(C)[C@@H]1C(O)=C(C(N)=O)C(=O)[C@@]2(O)C(O)=C3C(=O)c4c(O)cccc4[C@@](C)(O)[C@H]3C[C@@H]12 [TETRACYCLINE]	Not Active	Not Active	Not Active	Not Active	Not Active	Not Active	Not Active	Not Active	Not Active	Not Active	Not Active	Not Active	Not Active	Not Active	Not Active	Not Active	Not Active	Not Active	Not Active	Not Active	IC50 ([7]; reticulocytes): Not Active
COc1cc(C(=O)NC2CCCNC2)cc(OC)c1OC (configuration not stated) [TROXIPIDE]	Not Active	Not Active	Not Active	Not Active	Not Active	Not Active	Not Active	Not Active	Not Active	Not Active	Not Active	Not Active	Not Active	Not Active	Not Active	Not Active	Not Active	Not Active	Not Active	Not Active	IC50 ([7]; reticulocytes): Not Active
